BindingDB's records for doi:10.1021/cb200305u (Harvard Medical School, 2012)

Key:
Experiment in all cases: In Vitro Kinase Assay
Aurora kinase B = Aurora kinase B (Homo sapiens, UniProt Q96GD4)
Source text: (§1) In vitro kinase assay of Aurora A, B, and C using Z-LYTE technology (Invitrogen) and ATP at Km apparent for each kinase.

Aurora kinase A = target: T1, Aurora kinase A (Homo sapiens, UniProt O14965)
T1 sequence (O14965 whole entry): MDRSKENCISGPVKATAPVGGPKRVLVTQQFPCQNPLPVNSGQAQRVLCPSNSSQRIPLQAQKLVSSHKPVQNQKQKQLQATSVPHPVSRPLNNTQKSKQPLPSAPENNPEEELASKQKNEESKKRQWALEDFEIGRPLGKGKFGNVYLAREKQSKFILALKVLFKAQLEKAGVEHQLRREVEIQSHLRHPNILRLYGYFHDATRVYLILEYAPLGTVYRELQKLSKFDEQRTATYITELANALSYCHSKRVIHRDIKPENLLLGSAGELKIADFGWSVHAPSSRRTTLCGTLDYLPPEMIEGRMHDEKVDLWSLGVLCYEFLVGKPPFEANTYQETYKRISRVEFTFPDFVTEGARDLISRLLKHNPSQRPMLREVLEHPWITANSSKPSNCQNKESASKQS
Source text: as §1

Aurora kinase C = target: T2, Aurora kinase C (Homo sapiens, UniProt Q9UQB9)
T2 sequence (Q9UQB9 whole entry): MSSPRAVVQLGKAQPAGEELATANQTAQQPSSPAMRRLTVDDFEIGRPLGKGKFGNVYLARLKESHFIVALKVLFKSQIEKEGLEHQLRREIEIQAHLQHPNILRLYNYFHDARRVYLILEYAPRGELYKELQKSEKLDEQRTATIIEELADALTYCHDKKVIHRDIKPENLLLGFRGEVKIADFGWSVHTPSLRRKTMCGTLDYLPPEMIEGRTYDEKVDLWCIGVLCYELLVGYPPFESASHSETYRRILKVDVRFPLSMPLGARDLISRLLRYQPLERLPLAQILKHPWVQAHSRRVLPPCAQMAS
Source text: as §1

Aurora kinase B, sequence (Q96GD4 whole entry): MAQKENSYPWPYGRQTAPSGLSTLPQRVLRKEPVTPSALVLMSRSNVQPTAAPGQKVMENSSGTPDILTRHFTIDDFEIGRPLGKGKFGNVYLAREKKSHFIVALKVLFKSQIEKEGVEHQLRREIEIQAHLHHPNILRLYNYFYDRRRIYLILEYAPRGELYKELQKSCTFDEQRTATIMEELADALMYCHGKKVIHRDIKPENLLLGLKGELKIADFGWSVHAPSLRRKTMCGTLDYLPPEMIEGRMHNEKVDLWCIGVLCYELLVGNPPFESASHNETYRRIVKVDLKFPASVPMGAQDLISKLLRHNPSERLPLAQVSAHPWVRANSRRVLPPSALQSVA

Row | SMILES | IC50 (Aurora kinase B) | IC50 (Aurora kinase A) | IC50 (Aurora kinase C)
1 | CC1CCN(S(=O)(=O)c2ccc(Nc3ncc4c(n3)N(C)c3ccccc3C(=O)N4C)cc2)CC1 [Benzo[e]pyrimido[5,4-b][1,4]diazepin-6(11H)-one, 5] | 45.1 nM | 16.8 nM | –
2 | CN1C(=O)c2ccccc2N(C)c2nc(Nc3ccc(OCc4ccccn4)cc3)ncc21 [Benzo[e]pyrimido[5,4-b][1,4]diazepin-6(11H)-one, 9] | 39.3 nM | 18.4 nM | –
3 | CCN1CCN(Cc2ccc(Nc3ncc4c(n3)N(C)c3cc(F)ccc3C(=O)N4C)cc2C(F)(F)F)CC1 [Benzo[e]pyrimido[5,4-b][1,4]diazepin-6(11H)-one, 31] | 586 nM | 298 nM | –
4 | CCN(CCCOc1ccc2c(Nc3cc(CC(=O)Nc4cccc(F)c4)n[nH]3)ncnc2c1)CCOP(=O)(O)O | – | – | 25.3 nM
5 | CN1c2ccccc2C(=O)Nc2cnc(Nc3ccc(N4CCC(O)CC4)cc3)nc21 [Benzo[e]pyrimido[5,4-b][1,4]diazepin-6(11H)-one, 18] | 216 nM | 98.5 nM | –
6 | CCN1CCN(Cc2ccc(Nc3ncc4c(n3)N(C)c3cc(C)ccc3C(=O)N4C)cc2C(F)(F)F)CC1 [Benzo[e]pyrimido[5,4-b][1,4]diazepin-6(11H)-one, 30] | 230 nM | 146 nM | –
7 | CN1C(=O)c2ccccc2N(C)c2nc(Nc3ccc(OCc4cccc(Cl)c4)cc3)ncc21 [Benzo[e]pyrimido[5,4-b][1,4]diazepin-6(11H)-one, 11] | 352 nM | 83.9 nM | –
8 | CN1C(=O)c2ccccc2N(C)c2nc(Nc3ccc(OCc4ccccn4)c(Cl)c3)ncc21 [Benzo[e]pyrimido[5,4-b][1,4]diazepin-6(11H)-one, 14] | 417 nM | 53.2 nM | –
9 | CN1CCN(c2ccc(Nc3ncc4c(n3)N(C)c3ccccc3C(=O)N4C)cc2C(F)(F)F)CC1 [Benzo[e]pyrimido[5,4-b][1,4]diazepin-6(11H)-one, 13] | 774 nM | 86.8 nM | –
10 | CCN1CCN(C(=O)Cc2ccc(Nc3ncc4c(n3)N(C)c3ccccc3C(=O)N4C)cc2)CC1 [Benzo[e]pyrimido[5,4-b][1,4]diazepin-6(11H)-one, 8] | 18.7 nM | 6.1 nM | –
11 | CN1C(=O)c2ccccc2N(C)c2nc(Nc3ccc(OCc4cccc(F)c4)cc3)ncc21 [Benzo[e]pyrimido[5,4-b][1,4]diazepin-6(11H)-one, 10] | 512 nM | 323 nM | –
12 | CCN1CCN(C(=O)Cc2ccc(Nc3ncc(F)c(Nc4ccc(C(=O)Nc5ccccc5Cl)cc4)n3)cc2)CC1 [Aurora Inhibitor, 35] | 1380 nM | 3.2 nM | 432 nM

Other lines, results leading:

Row | IC50 (Aurora kinase B) | IC50 (Aurora kinase A) | IC50 (Aurora kinase C) | SMILES
13 | 25.9 nM | 7.2 nM | 40.5 nM | CN1CCN(c2ccc(Nc3ncc4c(n3)N(C)c3ccccc3C(=O)N4C)cc2)CC1 [Benzo[e]pyrimido[5,4-b][1,4]diazepin-6(11H)-one, 3]
14 | 84.8 nM | 9 nM | – | CN1CCN(C(=O)c2ccc(Nc3ncc4c(n3)N(C)c3ccccc3C(=O)N4C)cc2C(F)(F)F)CC1 [Benzo[e]pyrimido[5,4-b][1,4]diazepin-6(11H)-one, 12]
15 | 43.7 nM | 5.1 nM | – | CN1C(=O)c2ccccc2N(C)c2nc(Nc3ccc(C(=O)N4CCC(O)CC4)c(C(F)(F)F)c3)ncc21 [Benzo[e]pyrimido[5,4-b][1,4]diazepin-6(11H)-one, 19]
16 | 55.8 nM | 11.9 nM | – | CN1CCN(c2cccc(Nc3ncc4c(n3)N(C)c3ccccc3C(=O)N4C)c2)CC1 [Benzo[e]pyrimido[5,4-b][1,4]diazepin-6(11H)-one, 17]
17 | 14.3 nM | 3.2 nM | – | CN1C(=O)c2ccccc2N(C)c2nc(Nc3ccc(C(=O)N4CCC(O)CC4)c(Cl)c3)ncc21 [Benzo[e]pyrimido[5,4-b][1,4]diazepin-6(11H)-one, 20]
18 | 14.5 nM | 3.7 nM | – | Cc1cc(Nc2ncc3c(n2)N(C)c2ccccc2C(=O)N3C)ccc1C(=O)N1CCN(C)CC1 [Benzo[e]pyrimido[5,4-b][1,4]diazepin-6(11H)-one, 21]
19 | 8.4 nM | 3.4 nM | – | CN1C(=O)c2ccccc2N(C)c2nc(Nc3ccc(S(N)(=O)=O)cc3)ncc21
20 | 24.2 nM | 2.6 nM | – | COc1cc(Nc2ncc3c(n2)N(C)c2ccccc2C(=O)N3C)ccc1C(=O)N1CCN(O)CC1 [Benzo[e]pyrimido[5,4-b][1,4]diazepin-6(11H)-one, 22]
21 | 19.8 nM | 10.7 nM | – | CN1CCN(Cc2cccc(Nc3ncc4c(n3)N(C)c3ccccc3C(=O)N4C)c2)CC1 [Benzo[e]pyrimido[5,4-b][1,4]diazepin-6(11H)-one, 16]
22 | – | 5.6 nM | 24.6 nM | CN1C(=O)c2ccccc2N(C)c2nc(Nc3ccc(N4CCC(O)CC4)cc3)ncc21 [Benzo[e]pyrimido[5,4-b][1,4]diazepin-6(11H)-one, 1]
23 | 36.7 nM | 14.9 nM | – | CN1CCN(C(=O)c2cccc(Nc3ncc4c(n3)N(C)c3ccccc3C(=O)N4C)c2)CC1 [Benzo[e]pyrimido[5,4-b][1,4]diazepin-6(11H)-one, 15]
24 | 15.2 nM | 5.9 nM | – | CCN1CCN(C(=O)c2ccc(Nc3ncc4c(n3)N(C)c3ccccc3C(=O)N4C)cc2)CC1 [Benzo[e]pyrimido[5,4-b][1,4]diazepin-6(11H)-one, 7]
25 | 487 nM | 13.4 nM | 595 nM | CCN1CCN(Cc2ccc(Nc3ncc4c(n3)N(C)c3c(F)cccc3C(=O)N4C)cc2C(F)(F)F)CC1 [Benzo[e]pyrimido[5,4-b][1,4]diazepin-6(11H)-one, 29]
26 | 132 nM | 11.6 nM | – | CCN1CCN(Cc2ccc(Nc3ncc4c(n3)N(C)c3c(C)cccc3C(=O)N4C)cc2C(F)(F)F)CC1 [Benzo[e]pyrimido[5,4-b][1,4]diazepin-6(11H)-one, 28]
27 | 28.6 nM | 8.8 nM | – | CN1C(=O)c2ccccc2N(C)c2nc(Nc3ccc(S(=O)(=O)N4CCC(O)CC4)cc3)ncc21 [Benzo[e]pyrimido[5,4-b][1,4]diazepin-6(11H)-one, 4]
